Experimental data taken from patent US6500455B1, “Tolperison-containing, pharmaceutical preparation for oral administration” (Sanochemia Pharmazeutika, priority 1999, dated 2002).

Assays:
[1] = effectiveness of the Tolperison isomers; conditions: comparison of (−) isomer, (+) isomer and racemic mixtures
[2] = blood (of humans); active ingredient present as 50/50 racemate; cited from earlier work

Compound | effectiveness of the isomers compared with each other [1] | proportion of the isomer present in the blood [2]
Cc1ccc(C(=O)C(C)CN2CCCCC2)cc1 (single isomer, unassigned; (+)) [(+) isomer] | almost identically effective | ≤ 10%
Cc1ccc(C(=O)C(C)CN2CCCCC2)cc1 (single isomer, unassigned; (-)) [(−) isomer, 2,4′-dimethyl-3-piperidonopropriophenone] | almost identically effective | up to 90%
